{"source": "ChEMBL document CHEMBL4390652", "about": "“Design, biological evaluation and X-ray crystallography of nanomolar multifunctional ligands targeting simultaneously acetylcholinesterase and glycogen synthase kinase-3” (Eur J Med Chem, 2019)", "key": {"[1]": {"test_system": "Phosphatidylinositol 4,5-bisphosphate 3-kinase catalytic subunit alpha isoform (Homo sapiens), P42336 [Q546K]", "assay": "Binding affinity to human partial length PIK3CA Q546K mutant (R108 to N1068 residues) expressed in mammalian expression system assessed as residual binding level at 10 uM by Kinomescan method relative to control"}, "[2]": {"biological_target": "Myosin-IIIb (Homo sapiens) (UniProt Q8WXR4)", "assay": "Binding affinity to wild-type human partial length MYO3B (M1 to D357 residues) expressed in bacterial expression system assessed as residual binding level at 10 uM by Kinomescan method relative to control"}, "[3]": {"biological_target": "Phosphorylase b kinase gamma catalytic chain, liver/testis isoform (Homo sapiens) (UniProt P15735)", "sequence (P15735 whole entry, the tested form may be a part, canonical isoform)": "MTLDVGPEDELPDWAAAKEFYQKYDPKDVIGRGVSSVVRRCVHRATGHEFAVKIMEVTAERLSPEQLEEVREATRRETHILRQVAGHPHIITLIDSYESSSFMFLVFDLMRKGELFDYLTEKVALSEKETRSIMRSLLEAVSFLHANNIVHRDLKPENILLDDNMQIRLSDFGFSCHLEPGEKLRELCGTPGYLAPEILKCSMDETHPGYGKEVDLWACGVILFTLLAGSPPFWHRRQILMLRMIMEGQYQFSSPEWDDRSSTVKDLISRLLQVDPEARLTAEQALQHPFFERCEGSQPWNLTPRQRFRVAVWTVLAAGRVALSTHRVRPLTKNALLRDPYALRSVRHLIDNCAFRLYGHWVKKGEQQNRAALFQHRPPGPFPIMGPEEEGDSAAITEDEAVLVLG", "assay": "Binding affinity to wild-type human partial length PHKG2 (M1 to W300 residues) expressed in bacterial expression system assessed as residual binding level at 10 uM by Kinomescan method relative to control"}, "[4]": {"biological_target": "Serine/threonine-protein kinase Nek2 (Homo sapiens) (UniProt P51955)", "assay": "Binding affinity to wild-type human partial length NEK2 (M1 to K309 residues) expressed in bacterial expression system assessed as residual binding level at 10 uM by Kinomescan method relative to control"}, "[5]": {"biological_target": "Serine/threonine-protein kinase D1 (Homo sapiens) (UniProt Q15139)", "assay": "Binding affinity to wild-type human partial length PRKD1 (G551 to E870 residues) expressed in bacterial expression system assessed as residual binding level at 10 uM by Kinomescan method relative to control"}, "[6]": {"biological_target": "Tyrosine-protein kinase Fer (Homo sapiens) (UniProt P16591)", "assay": "Binding affinity to wild-type human partial length FER (S542 to T822 residues) expressed in bacterial expression system assessed as residual binding level at 10 uM by Kinomescan method relative to control"}, "[7]": {"biological_target": "G protein-coupled receptor kinase 3 (Homo sapiens) (UniProt P35626)", "sequence (P35626 whole entry, the tested form may be a part)": "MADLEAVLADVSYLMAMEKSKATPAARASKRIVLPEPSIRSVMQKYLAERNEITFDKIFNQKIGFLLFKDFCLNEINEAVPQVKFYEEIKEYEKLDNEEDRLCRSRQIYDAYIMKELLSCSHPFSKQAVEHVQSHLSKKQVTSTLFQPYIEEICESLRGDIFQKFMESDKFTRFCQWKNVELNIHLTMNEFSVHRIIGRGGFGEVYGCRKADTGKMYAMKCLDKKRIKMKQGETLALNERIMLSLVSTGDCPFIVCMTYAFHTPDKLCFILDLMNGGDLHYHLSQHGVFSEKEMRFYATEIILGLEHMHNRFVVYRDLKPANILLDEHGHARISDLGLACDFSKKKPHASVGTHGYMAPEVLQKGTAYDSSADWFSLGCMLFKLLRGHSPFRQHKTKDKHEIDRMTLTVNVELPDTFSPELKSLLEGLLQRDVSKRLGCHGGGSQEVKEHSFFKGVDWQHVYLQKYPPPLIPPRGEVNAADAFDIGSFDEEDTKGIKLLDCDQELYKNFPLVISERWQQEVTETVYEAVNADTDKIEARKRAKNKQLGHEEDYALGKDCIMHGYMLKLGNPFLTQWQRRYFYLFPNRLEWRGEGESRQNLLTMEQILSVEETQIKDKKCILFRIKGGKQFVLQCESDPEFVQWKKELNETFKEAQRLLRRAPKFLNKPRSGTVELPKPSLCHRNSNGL", "assay": "Binding affinity to wild-type human full length GRK3 (M1 to L688 residues) expressed in mammalian expression system assessed as residual binding level at 10 uM by Kinomescan method relative to control"}, "[8]": {"biological_target": "Dual specificity protein kinase CLK1 (Homo sapiens) (UniProt P49759)", "assay": "Binding affinity to wild-type human full length CLK1 (M1 to I484 residues) expressed in bacterial expression system assessed as residual binding level at 10 uM by Kinomescan method relative to control"}, "[9]": {"biological_target": "Protein kinase C iota type (Homo sapiens) (UniProt P41743)", "assay": "Binding affinity to wild-type human partial length PRKCI (H215 to V587 residues) expressed in mammalian expression system assessed as residual binding level at 10 uM by Kinomescan method relative to control"}, "[10]": {"test_system": "Mast/stem cell growth factor receptor Kit (Homo sapiens), P10721 [D816H]", "assay": "Binding affinity to human partial length KIT D816H mutant (I571 to D952 residues) expressed in mammalian expression system assessed as residual binding level at 10 uM by Kinomescan method relative to control"}, "[11]": {"biological_target": "Activated CDC42 kinase 1 (Homo sapiens) (UniProt Q07912)", "assay": "Binding affinity to wild-type human partial length TNK2 (S159 to D474 residues) expressed in bacterial expression system assessed as residual binding level at 10 uM by Kinomescan method relative to control"}, "[12]": {"biological_target": "Epidermal growth factor receptor (Homo sapiens) (UniProt P00533)", "sequence (P00533 whole entry, the tested form may be a part)": "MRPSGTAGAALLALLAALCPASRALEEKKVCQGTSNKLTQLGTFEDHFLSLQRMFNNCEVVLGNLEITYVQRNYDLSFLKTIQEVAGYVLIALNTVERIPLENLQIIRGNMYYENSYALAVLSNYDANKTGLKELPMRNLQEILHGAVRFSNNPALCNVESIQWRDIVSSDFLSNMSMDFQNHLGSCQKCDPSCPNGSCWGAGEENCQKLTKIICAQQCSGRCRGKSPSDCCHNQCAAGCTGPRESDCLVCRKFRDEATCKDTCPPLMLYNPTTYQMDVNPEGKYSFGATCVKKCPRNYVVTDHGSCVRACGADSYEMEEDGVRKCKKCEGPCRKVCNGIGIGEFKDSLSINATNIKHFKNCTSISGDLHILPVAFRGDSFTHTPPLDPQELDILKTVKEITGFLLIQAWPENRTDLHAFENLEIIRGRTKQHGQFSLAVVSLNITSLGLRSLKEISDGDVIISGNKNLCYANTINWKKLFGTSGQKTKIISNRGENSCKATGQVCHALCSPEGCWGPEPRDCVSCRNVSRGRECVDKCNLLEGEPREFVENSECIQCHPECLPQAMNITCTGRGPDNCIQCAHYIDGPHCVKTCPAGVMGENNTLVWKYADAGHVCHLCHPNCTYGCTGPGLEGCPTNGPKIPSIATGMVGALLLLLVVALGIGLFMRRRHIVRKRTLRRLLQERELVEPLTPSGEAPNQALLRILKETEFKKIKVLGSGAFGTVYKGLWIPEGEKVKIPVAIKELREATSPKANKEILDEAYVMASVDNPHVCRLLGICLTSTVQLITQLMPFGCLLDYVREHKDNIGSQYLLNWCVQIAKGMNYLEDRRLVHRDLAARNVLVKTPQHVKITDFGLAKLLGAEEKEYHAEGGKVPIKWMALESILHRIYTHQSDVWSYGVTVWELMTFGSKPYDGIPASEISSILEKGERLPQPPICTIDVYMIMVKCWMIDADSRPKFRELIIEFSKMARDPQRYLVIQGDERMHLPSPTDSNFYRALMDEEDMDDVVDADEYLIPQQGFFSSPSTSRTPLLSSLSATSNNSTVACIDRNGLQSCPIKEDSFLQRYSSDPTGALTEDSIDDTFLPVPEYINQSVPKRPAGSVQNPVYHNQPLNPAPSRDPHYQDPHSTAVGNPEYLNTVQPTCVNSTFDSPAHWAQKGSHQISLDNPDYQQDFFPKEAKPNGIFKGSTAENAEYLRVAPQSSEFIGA", "assay": "Binding affinity to wild-type human partial length EGFR (R669 to V1011 residues) expressed in bacterial expression system assessed as residual binding level at 10 uM by Kinomescan method relative to control"}, "[13]": {"biological_target": "Ribosomal protein S6 kinase alpha-2 (Homo sapiens) (UniProt Q15349)", "assay": "Binding affinity to wild-type human partial length C-terminal RSK3 kinase domain 2 (V403 to K700 residues) expressed in bacterial expression system assessed as residual binding level at 10 uM by Kinomescan method relative to control"}, "MDA-MB-231": {"test_system": "MDA-MB-231", "assay": "Cytotoxicity against human MDA-MB-231 cells assessed as growth inhibition incubated for 48 hrs by Hoechst 33342 staining based assay", "type": "cell-based", "conditions": "MDA-MB-231, 48 h"}, "[14]": {"biological_target": "Insulin receptor (Homo sapiens) (UniProt P06213)", "assay": "Binding affinity to wild-type human partial length INSR (P997 to E1318 residues) expressed in mammalian expression system assessed as residual binding level at 10 uM by Kinomescan method relative to control"}, "[15]": {"biological_target": "Cyclin-dependent kinase 3 (Homo sapiens) (UniProt Q00526)", "assay": "Binding affinity to wild-type human full length CDK3 (M1 to H305 residues) expressed in bacterial expression system assessed as residual binding level at 10 uM by Kinomescan method relative to control"}, "[16]": {"biological_target": "Serine/threonine-protein kinase D2 (Homo sapiens) (UniProt Q9BZL6)", "assay": "Binding affinity to wild-type human partial length PRKD2 (A519 to E838 residues) expressed in bacterial expression system assessed as residual binding level at 10 uM by Kinomescan method relative to control"}, "[17]": {"biological_target": "Serine/threonine-protein kinase STK11 (Homo sapiens) (UniProt Q15831)", "sequence (Q15831 whole entry, the tested form may be a part)": "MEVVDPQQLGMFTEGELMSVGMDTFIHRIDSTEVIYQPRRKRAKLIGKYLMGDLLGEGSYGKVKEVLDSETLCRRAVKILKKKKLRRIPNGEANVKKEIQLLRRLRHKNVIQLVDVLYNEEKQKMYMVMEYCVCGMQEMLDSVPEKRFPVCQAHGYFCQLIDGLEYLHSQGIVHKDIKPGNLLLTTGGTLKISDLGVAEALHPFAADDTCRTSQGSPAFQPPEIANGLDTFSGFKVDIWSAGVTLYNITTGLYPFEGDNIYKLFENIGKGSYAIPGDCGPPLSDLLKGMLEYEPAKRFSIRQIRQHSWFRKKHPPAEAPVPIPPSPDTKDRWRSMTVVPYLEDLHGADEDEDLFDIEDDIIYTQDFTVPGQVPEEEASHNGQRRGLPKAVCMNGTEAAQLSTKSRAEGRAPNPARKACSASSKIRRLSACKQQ", "assay": "Binding affinity to wild-type human full length LKB1 (M1 to Q433 residues) expressed in bacterial expression system assessed as residual binding level at 10 uM by Kinomescan method relative to control"}, "[18]": {"biological_target": "Mast/stem cell growth factor receptor Kit (Homo sapiens) (UniProt P10721)", "sequence (P10721 whole entry, the tested form may be a part)": "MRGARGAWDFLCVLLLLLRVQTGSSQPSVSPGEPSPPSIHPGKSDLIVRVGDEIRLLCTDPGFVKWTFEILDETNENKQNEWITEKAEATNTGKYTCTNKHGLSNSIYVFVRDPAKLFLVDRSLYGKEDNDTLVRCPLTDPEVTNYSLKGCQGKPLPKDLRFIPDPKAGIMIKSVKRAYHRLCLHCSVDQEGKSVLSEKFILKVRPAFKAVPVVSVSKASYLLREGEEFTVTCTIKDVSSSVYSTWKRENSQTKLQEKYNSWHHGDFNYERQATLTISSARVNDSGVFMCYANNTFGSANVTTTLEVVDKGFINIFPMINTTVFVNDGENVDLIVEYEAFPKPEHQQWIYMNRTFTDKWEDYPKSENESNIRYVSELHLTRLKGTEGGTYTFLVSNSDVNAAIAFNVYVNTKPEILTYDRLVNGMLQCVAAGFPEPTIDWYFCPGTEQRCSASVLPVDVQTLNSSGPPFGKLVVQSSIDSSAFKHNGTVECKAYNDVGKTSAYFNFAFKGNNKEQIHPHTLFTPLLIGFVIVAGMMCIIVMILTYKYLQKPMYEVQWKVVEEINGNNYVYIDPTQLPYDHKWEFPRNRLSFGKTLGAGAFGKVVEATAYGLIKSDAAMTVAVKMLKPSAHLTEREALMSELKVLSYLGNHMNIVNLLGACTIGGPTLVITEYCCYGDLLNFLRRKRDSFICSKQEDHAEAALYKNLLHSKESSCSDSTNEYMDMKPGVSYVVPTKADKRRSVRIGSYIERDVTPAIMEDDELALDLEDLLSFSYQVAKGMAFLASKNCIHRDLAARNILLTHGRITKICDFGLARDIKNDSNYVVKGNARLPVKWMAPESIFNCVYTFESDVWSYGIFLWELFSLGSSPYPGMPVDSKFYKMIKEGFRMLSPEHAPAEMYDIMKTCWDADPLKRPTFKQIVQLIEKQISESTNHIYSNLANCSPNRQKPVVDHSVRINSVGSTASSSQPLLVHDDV", "assay": "Binding affinity to wild-type human partial length autoinhibited KIT (Y545 to D952 residues) expressed in mammalian expression system assessed as residual binding level at 10 uM by Kinomescan method relative to control"}, "[19]": {"test_system": "eIF-2-alpha kinase GCN2 (Homo sapiens), Q9P2K8 [S808G]", "assay": "Binding affinity to wild-type human partial length GCN2 kinase domain 2 (R585 to T1018 residues) S808G mutant expressed in bacterial expression system assessed as residual binding level at 10 uM by Kinomescan method relative to control"}, "[20]": {"biological_target": "Mast/stem cell growth factor receptor Kit (Homo sapiens) (UniProt P10721)", "assay": "Binding affinity to wild-type human partial length KIT (I571 to D952 residues) expressed in bacterial expression system assessed as residual binding level at 10 uM by Kinomescan method relative to control"}, "[21]": {"biological_target": "Insulin-like growth factor 1 receptor (Homo sapiens) (UniProt P08069)", "sequence (P08069 31-736 limits assumed)": "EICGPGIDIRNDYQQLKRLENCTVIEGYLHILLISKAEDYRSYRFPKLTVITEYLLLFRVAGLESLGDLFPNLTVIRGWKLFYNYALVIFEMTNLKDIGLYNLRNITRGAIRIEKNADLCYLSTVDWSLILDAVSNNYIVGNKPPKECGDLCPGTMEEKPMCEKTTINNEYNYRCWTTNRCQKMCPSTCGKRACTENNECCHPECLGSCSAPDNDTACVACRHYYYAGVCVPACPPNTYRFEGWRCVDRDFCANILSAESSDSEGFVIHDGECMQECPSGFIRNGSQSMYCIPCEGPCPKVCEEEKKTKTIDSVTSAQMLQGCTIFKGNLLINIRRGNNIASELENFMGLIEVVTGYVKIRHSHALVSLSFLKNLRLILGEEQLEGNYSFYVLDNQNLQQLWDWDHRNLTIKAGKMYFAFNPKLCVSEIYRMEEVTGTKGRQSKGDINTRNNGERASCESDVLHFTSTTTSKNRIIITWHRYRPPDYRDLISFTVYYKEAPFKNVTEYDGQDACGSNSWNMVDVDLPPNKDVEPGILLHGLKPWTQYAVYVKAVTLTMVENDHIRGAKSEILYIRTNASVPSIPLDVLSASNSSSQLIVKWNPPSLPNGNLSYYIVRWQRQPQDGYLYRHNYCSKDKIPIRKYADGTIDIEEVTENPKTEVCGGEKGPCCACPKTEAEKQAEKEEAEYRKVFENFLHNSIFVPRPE", "sequence (P08069 741-1367 limits assumed)": "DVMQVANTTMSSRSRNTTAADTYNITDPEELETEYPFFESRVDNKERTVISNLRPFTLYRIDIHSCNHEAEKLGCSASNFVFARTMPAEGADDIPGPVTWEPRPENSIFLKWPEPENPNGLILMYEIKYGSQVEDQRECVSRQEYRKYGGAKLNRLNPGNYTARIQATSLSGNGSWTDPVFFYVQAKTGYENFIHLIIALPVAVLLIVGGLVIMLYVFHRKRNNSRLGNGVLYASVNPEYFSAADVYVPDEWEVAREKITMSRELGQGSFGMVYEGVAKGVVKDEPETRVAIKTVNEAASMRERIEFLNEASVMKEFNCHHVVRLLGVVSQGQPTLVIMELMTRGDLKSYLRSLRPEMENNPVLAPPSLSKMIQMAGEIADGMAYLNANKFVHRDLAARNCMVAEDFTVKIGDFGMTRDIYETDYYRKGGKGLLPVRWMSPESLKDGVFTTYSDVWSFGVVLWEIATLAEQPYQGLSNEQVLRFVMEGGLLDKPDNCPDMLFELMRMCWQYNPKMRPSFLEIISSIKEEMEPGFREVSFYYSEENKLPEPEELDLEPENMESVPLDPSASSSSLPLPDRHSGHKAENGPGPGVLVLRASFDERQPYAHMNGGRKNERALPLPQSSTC", "assay": "Binding affinity to wild-type human partial length IGF1R (L972 to D1294 residues) expressed in bacterial expression system assessed as residual binding level at 10 uM by Kinomescan method relative to control"}, "[22]": {"biological_target": "NUAK family SNF1-like kinase 2 (Homo sapiens) (UniProt Q9H093)", "assay": "Binding affinity to wild-type human partial length SNARK (P22 to A333 residues) expressed in mammalian expression system assessed as residual binding level at 10 uM by Kinomescan method relative to control"}, "[23]": {"biological_target": "Receptor-type tyrosine-protein kinase FLT3 (Homo sapiens) (UniProt P36888)", "assay": "Binding affinity to wild-type human partial length autoinhibited FLT3 (H564 to Y969 residues) expressed in mammalian expression system assessed as residual binding level at 10 uM by Kinomescan method relative to control"}, "[24]": {"biological_target": "Non-receptor tyrosine-protein kinase TYK2 (Homo sapiens) (UniProt P29597)", "assay": "Binding affinity to wild-type human partial length TYK2 JH1 catalytic domain (V877 to C1187 residues) expressed in mammalian expression system assessed as residual binding level at 10 uM by Kinomescan method relative to control"}}}
{"smiles": "O=C(Nc1cc(-c2cn(CCNc3c4c(nc5ccccc35)CCCC4)nn2)ccn1)Nc1cccc2c1C1CCCCN1C2=O", "note": "(racemic)", "values": [{"measurement": "Activity", "setting": "[1]", "value": 84, "unit": "%"}, {"measurement": "Activity", "setting": "[2]", "value": 100, "unit": "%"}, {"measurement": "Activity", "setting": "[3]", "value": 50, "unit": "%"}, {"measurement": "Activity", "setting": "[4]", "value": 94, "unit": "%"}, {"measurement": "Activity", "setting": "[5]", "value": 24, "unit": "%"}, {"measurement": "Activity", "setting": "[6]", "value": 100, "unit": "%"}, {"measurement": "Activity", "setting": "[7]", "value": 100, "unit": "%"}, {"measurement": "Activity", "setting": "[8]", "value": 4.5, "unit": "%"}, {"measurement": "Activity", "setting": "[9]", "value": 100, "unit": "%"}, {"measurement": "Activity", "setting": "[10]", "value": 2.2, "unit": "%"}, {"measurement": "Activity", "setting": "[11]", "value": 100, "unit": "%"}, {"measurement": "Activity", "setting": "[12]", "value": 79, "unit": "%"}, {"measurement": "Activity", "setting": "[13]", "value": 74, "unit": "%"}, {"measurement": "IC50", "setting": "MDA-MB-231", "value": 2, "unit": "µM"}, {"measurement": "Activity", "setting": "[14]", "value": 17, "unit": "%"}, {"measurement": "Activity", "setting": "[15]", "value": 90, "unit": "%"}, {"measurement": "Activity", "setting": "[16]", "value": 31, "unit": "%"}, {"measurement": "Activity", "setting": "[17]", "value": 36, "unit": "%"}, {"measurement": "Activity", "setting": "[18]", "value": 7, "unit": "%"}, {"measurement": "Activity", "setting": "[19]", "value": 75, "unit": "%"}, {"measurement": "Activity", "setting": "[20]", "value": 0.25, "unit": "%"}, {"measurement": "Activity", "setting": "[21]", "value": 75, "unit": "%"}, {"measurement": "Activity", "setting": "[22]", "value": 1.9, "unit": "%"}, {"measurement": "Activity", "setting": "[23]", "value": 12, "unit": "%"}, {"measurement": "Activity", "setting": "[24]", "value": 39, "unit": "%"}]}
